pIC50: −log10 of the molar value. Values joined by “and” are separate entries in the source; they are usually repeats but may differ in a detail not shown here. Identical values can stand only once. Like-named read-outs stand apart in the source and are kept apart here. Each block holds one compound with its values, some of them ahead of it.
Assays:
[1] = system: ISG expression in MCF10A Cas9 cells expressing BRCC45 R137A; experiment: MCF10A BRCC45 R137A ISG expression (RT–qPCR); assay type: cell-based, human; set-up: scale not given here; details: BRCC45 KO+ BRCC45 R137A; replicate values
Protocol: Supplementary Protocols 1. Experimental procedures for cell biology experiments. […]
Media supplements including human insulin solution (Santa Cruz Biotechnology, #sc-360248), cholera toxin from vibrio (Sigma Aldrich, #C8052-2MG), recombinant human EGF (PeproTech, #AF-100-15-100µg), hydrocortisone (Sigma-Aldrich, #H-0888) were used to grow MCF10A cells. The 4–12% Bis-Tris SDS-PAGE gels, cell culture media, horse serum and other materials for tissue culture were purchased from Invitrogen. LipoD293 (SigmaGen, #SL100668) was used for all the transfections to generate knock out cell lines.
Immortalised breast epithelial cell line MCF10A were cultured in 10 cm plates with Dulbecco’s Modified Eagle Medium (DMEM) + F-12 (1:1) supplemented with 5% horse serum, 100 ng/mL cholera toxin, 10 […]
Real-time quantitative PCR
1x10^5 MCF10A cells were cultured as described above and seeded into 6 well plates. Cells were left to reach ultra-confluence. Once confluent, cells were washed with PBS and starved for 30 minutes in 2 mL DMEM + F-12 (1:1) supplemented with 1% horse serum. After 30 minutes cells were pre-treated with either DMSO (0.1%) (Control and IFN only) or BRISC inhibitor (2.5 µM) for 15 minutes. After 15 minutes, hIFN2α (75 ng/mL) was added to the media and mixed. Cells were treated for 4 hours. Cells were washed with ice cold PBS and scraped with cell scrapers into 350 µL RNAlater buffer and RNA […]
#79254). Isolated RNA was quantified using a Nanodrop spectrophotometer. RNA was converted into cDNA and the complementary DNA was used for real-time quantitative PCR analysis of expression of interferon stimulated genes (ISG15, IFIT1, IFIT2, IFITM1, CXCL10 and RNA18S) using an Applied Biosystems Quantstudio 6 RT-PCR system. All experiments were carried out in triplicate.

[2] = target: T1, BRISC (Homo sapiens, UniProt P46736+Q15018+Q9NXR7); experiment: BRISC DUB activity assay (IQF K63-linked diubiquitin); assay type: biochemical
T1 construct: made in house; host or cells: Spodoptera frugiperda (Sf9) insect cells, MultiBac
Protocol: IQF assays were performed in DUB reaction buffer containing 50 mM HEPES–NaOH pH 7.0, 100 mM NaCl, 0.1 mg ml^−1 BSA, 1 mM DTT and 0.03% v/v Brij-35. […] The final concentration of BRISC WT, all BRISC mutants, HsBRISCΔLoop, MmBRISC and DrBRISCΔNΔC was 1 nM. Other enzymes were tested at the following concentrations: 5 nM ARISC (FL), 10 nM CfBRISCΔNΔC, 250 nM AMSH* (ref. [43]), 500 nM USP2 and 1 μM trypsin (Sigma, 9002-07-7). For Michaelis–Menten experiments, 1 nM BRISC with 0–1 μM IQF K63-linked diubiquitin substrate was used. Michaelis–Menten analyses and Lineweaver–Burk plots were calculated using GraphPad Prism (version 9.0).
To assess enzymatic activity, BRISC complexes were diluted to concentrations between 1 nM and 50 nM. […] Then, 20-μl enzyme reactions were carried out in 384-well black flat-bottom low-flange plates (Corning, 35373). DUB activity was measured using IQF K63-linked diubiquitin (LifeSensors, DU6303) at 50 nM. Cleaved diubiquitin was monitored by measuring fluorescence intensity (excitation, 544 nm; emission, 575 nm; dichroic mirror, 560 nm). Fluorescence intensity was measured every minute for 30 min at 30 °C. Fluorescence intensity units were plotted against time to generate a linear reaction progress curve, where the initial velocity (V0) corresponds to the gradient of the curve (typically achieved within 15 min). IC50 values were calculated using the GraphPad Prism (version 9.0) built-in dose–response equation for inhibitor concentration versus response (variable slope).

[3] = [Inhibitor] 0.013 μM, replicate columns
[4] = [Inhibitor] 0.02 μM, replicate columns
[5] = [Inhibitor] 0.0399999 μM, replicate columns
[6] = [Inhibitor] 0.0599997 μM, replicate columns
[7] = [Inhibitor] 0.0799994 μM, replicate columns
[8] = [Inhibitor] 0.119998 μM, replicate columns
[9] = [Inhibitor] 0.199996 μM, replicate columns
[10] = [Inhibitor] 0.499975 μM, replicate columns
[11] = [Inhibitor] 0.799936 μM, replicate columns
[12] = [Inhibitor] 1.25984 μM, replicate columns
[13] = [Inhibitor] 1.9996 μM, replicate columns
[14] = [Inhibitor] 3.159 μM, replicate columns
[15] = [Inhibitor] 5.19739 μM, replicate columns
[16] = [Inhibitor] 7.99364 μM, replicate columns
[17] = [Inhibitor] 12.7839 μM, replicate columns
[18] = [Inhibitor] 19.96 μM, replicate columns
[19] = [Inhibitor] 31.4999 μM, replicate columns
[20] = [Inhibitor] 50.147 μM, replicate columns
[21] = [Inhibitor] 79.7601 μM, replicate columns
[22] = [Inhibitor] 125.99 μM, replicate columns
[23] = [Inhibitor] 199.922 μM, replicate columns

inhibition of BRISC DUB activity (in words) ([2]; IQF diubiquitin assay): no inhibitory effect
Normalised V0 [2, 3]: 0.9159 and 1.143 and 0.9058 and 0.9388
Normalised V0 [2, 4]: 0.9923 and 1.0109
Normalised V0 [2, 5]: 0.8997 and 0.9429
Normalised V0 [2, 6]: 0.9873 and 1.113
Normalised V0 [2, 7]: 0.9492 and 1.054
Normalised V0 [2, 8]: 0.9627 and 1.064
Normalised V0 [2, 9]: 0.9243 and 0.9333
Normalised V0 [2, 10]: 0.9206 and 1.055
Normalised V0 [2, 11]: 0.5226 and 1.107
Normalised V0 [2, 12]: 0.877 and 1.051
Normalised V0 [2, 13]: 0.8804 and 1.0497
Normalised V0 [2, 14]: 0.8796 and 0.9314
Normalised V0 [2, 15]: 1.075 and 0.9343
Normalised V0 [2, 16]: 0.9828 and 1.083
Normalised V0 [2, 17]: 1.017 and 1.039
Normalised V0 [2, 18]: 1.018 and 0.9724
Normalised V0 [2, 19]: 0.9031 and 1.019
Normalised V0 [2, 20]: 0.9135 and 0.9224
Normalised V0 [2, 21]: 0.8955 and 0.9782
Normalised V0 [2, 22]: 0.8989 and 0.9064
Normalised V0 [2, 23]: 0.8256 and 0.9679
SMILES: Cn1cc(NC(=O)c2c(Cl)cccc2Cl)c(C(=O)NC2CCN(C(=O)c3c(Cl)cccc3Cl)CC2)n1 [AP-5-145]
ISG expression (Fig. 5b) [1]: 1.156 and 0.9393 and 0.8616 and 0.9356 and 0.9314
ISG expression (Fig. 5c) [1]: 1.216 and 0.9273 and 0.916 and 0.9352 and 0.7895
ISG expression (Fig. 5e) [1]: 1.091 and 0.9001 and 0.8733 and 0.8458 and 0.7765
ISG expression (Fig. 5f) [1]: 1.662 and 0.8736 and 0.8819 and 0.8534 and 1.058
ISG expression (Fig. 5d) [1]: 1.117 and 1.15 and 0.9989 and 1.074 and 0.7573

pIC50 ([2]; 32-point dose-response, biphasic fit, read-out: IC50(1), biphasic curve): 5.96
pIC50 ([2]; 32-point dose-response, biphasic fit, read-out: IC50(2), biphasic curve): 6.77
Normalised V0 ([2]; Fig. 1e, BRISC, JMS-175-2 1.9996 μM): 0.6565 and 0.4518
Normalised V0 ([2]; Fig. 1e, BRISC, JMS-175-2 5.19739 μM): 0.283 and 0.275 and 0.3465
Normalised V0 ([2]; Fig. 1d, log[compound (μM)] 0.0000, listed as H20): 0.6438 and 0.8274 and 0.7444
Normalised V0 ([2]; Fig. 1d, log[compound (μM)] 0.3979, listed as H20): 0.5783 and 0.5268 and 0.4841
Normalised V0 ([2]; Fig. 1d, log[compound (μM)] 0.6990, listed as H20): 0.3795 and 0.3824 and 0.3190
Normalised V0 ([2]; Fig. 1d, log[compound (μM)] 1.0000, listed as H20): 0.2528 and 0.2942 and 0.2669
Normalised V0 ([2]; Fig. 1d, log[compound (μM)] 1.4771, listed as H20): 0.1351 and 0.1861 and 0.1726
Normalised V0 ([2]; Fig. 1d, log[compound (μM)] 1.6990, listed as H20): 0.1117 and 0.1567 and 0.1200
Normalised V0 ([2]; Fig. 1d, log[compound (μM)] -0.3010, listed as H20): 0.9255 and 0.9030
Normalised V0 ([2]; Fig. 1d, log[compound (μM)] -1.0000, listed as H20): 0.9975 and 1.0280 and 1.0210
Normalised V0 ([2]; Fig. 1d, log[compound (μM)] -2.0000, listed as H20): 1.0150 and 0.9155 and 1.0690
pIC50 ([2]; IQF K63-linked diubiquitin substrate, read-out: IC50, inhibition of BRISC DUB activity): 5.42
Normalised V0 [2, 4]: 0.8771 and 0.8197 and 1.004
Normalised V0 [2, 5]: 1.299 and 0.7892 and 1.03
Normalised V0 [2, 6]: 0.839 and 0.6819 and 0.9433
Normalised V0 [2, 7]: 0.9097 and 0.9012 and 0.9628
Normalised V0 [2, 8]: 1.013 and 0.9179 and 1.054
Normalised V0 [2, 9]: 1.253 and 0.7708 and 1.101
Normalised V0 [2, 10]: 0.5936 and 0.7022 and 0.9756
Normalised V0 [2, 11]: 0.9296 and 0.6017 and 0.8518
Normalised V0 [2, 12]: 1.139 and 0.471 and 0.8066
Normalised V0 [2, 13]: 0.6565 and 0.4518 and 0.6268
Normalised V0 [2, 14]: 0.6624 and 0.3061 and 0.5597
Normalised V0 [2, 15]: 0.283 and 0.275 and 0.3465
Normalised V0 [2, 16]: 0.6473 and 0.2184 and 0.4215
Normalised V0 [2, 17]: 0.4135 and 0.1798 and 0.2477
Normalised V0 [2, 18]: 0.3284 and 0.5166 and 0.3249
Normalised V0 [2, 19]: 0.6187 and 0.1303 and 0.1533
Normalised V0 [2, 20]: 0.2621 and 0.1377 and 0.1733
Normalised V0 [2, 21]: 0.2164 and 0.1356 and 0.1726
Normalised V0 [2, 22]: 0.1111 and 0.1816 and 0.02719
Normalised V0 [2, 23]: -0.03072 and 0.01018 and -0.03521
Normalised velocity (V0) ([2]; inhibitor 0.000794328 μM): 1
Normalised velocity (V0) ([2]; inhibitor 0.00125892 μM): 0.9579 and 1.034
Normalised velocity (V0) ([2]; inhibitor 0.00199526 μM): 1.01 and 0.9969
Normalised velocity (V0) ([2]; inhibitor 0.00316228 μM): 0.9962 and 1.154
Normalised velocity (V0) ([2]; inhibitor 0.00501187 μM): 0.9932 and 1.028
Normalised velocity (V0) ([2]; inhibitor 0.00794328 μM): 1.087 and 1.121
normalised V0, Mean ([2]; inhibitor 0.01 μM): 1
Normalised velocity (V0) ([2]; inhibitor 0.0125893 μM): 1.059 and 1.016
Normalised velocity (V0) ([2]; inhibitor 0.0199526 μM): 1.08 and 1.097
Normalised velocity (V0) ([2]; inhibitor 0.0316228 μM): 1.03 and 1.101
Normalised velocity (V0) ([2]; inhibitor 0.0501187 μM): 1.036 and 1.109
normalised V0, Mean ([2]; inhibitor 0.0781 μM): 0.9992
Normalised velocity (V0) ([2]; inhibitor 0.0794328 μM): 1.026 and 1.083
Normalised velocity (V0) ([2]; inhibitor 0.125893 μM): 0.8526 and 0.9544
Normalised velocity (V0) ([2]; inhibitor 0.199526 μM): 0.6481 and 0.8082
Normalised velocity (V0) ([2]; inhibitor 0.316228 μM): 0.694 and 0.5793
Normalised velocity (V0) ([2]; inhibitor 0.398107 μM): 0.5098 and 0.5762
Normalised velocity (V0) ([2]; inhibitor 0.630957 μM): 0.4827 and 0.4555
normalised V0, Mean ([2]; inhibitor 0.7812 μM): 0.7414
Normalised velocity (V0) ([2]; inhibitor 1 μM): 0.3835 and 0.2691
normalised V0, Mean ([2]; inhibitor 1.562 μM): 0.5385
Normalised velocity (V0) ([2]; inhibitor 1.58489 μM): 0.2248 and 0.2189
Normalised velocity (V0) ([2]; inhibitor 2.51189 μM): 0.2301 and 0.1988
normalised V0, Mean ([2]; inhibitor 3.12 μM): 0.384
Normalised velocity (V0) ([2]; inhibitor 3.98107 μM): 0.1293 and 0.1933
normalised V0, Mean ([2]; inhibitor 6.25 μM): 0.2986
Normalised velocity (V0) ([2]; inhibitor 6.30957 μM): 0.09323 and 0.07115
normalised V0, Mean ([2]; inhibitor 12.3 μM): 0.2014
Normalised velocity (V0) ([2]; inhibitor 15.8489 μM): 0.009774 and 0.01547
normalised V0, Mean ([2]; inhibitor 24.54 μM): 0.1684
Normalised velocity (V0) ([2]; inhibitor 25.1189 μM): 0
Normalised velocity (V0) ([2]; inhibitor 39.8107 μM): 0
normalised V0, Mean ([2]; inhibitor 48.9 μM): 0.1492
Normalised velocity (V0) ([2]; inhibitor 63.0957 μM): 0
Normalised velocity (V0) ([2]; inhibitor 100 μM): 0
normalised V0, Mean ([2]; inhibitor 100 μM): 0.04999
normalised V0, Mean ([2]; inhibitor 199.5 μM): 0.004784
SMILES: O=C(NC1CCNCC1)c1nn(C(=O)c2c(Cl)cccc2Cl)cc1NC(=O)c1c(Cl)cccc1Cl [JMS-175-2]
ISG expression (Fig. 5b) [1]: 1.361 and 1.11 and 1.149 and 1.082 and 0.8783
ISG expression (Fig. 5c) [1]: 1.325 and 1.127 and 1.329 and 1.145 and 0.8628
ISG expression (Fig. 5e) [1]: 1.156 and 1.163 and 1.393 and 1.185 and 1.136
ISG expression (Fig. 5f) [1]: 1.041 and 1.139 and 1.224 and 1.412 and 1.207
ISG expression (Fig. 5d) [1]: 1.23 and 1.313 and 1.719 and 1.523 and 0.8668
Normalised V0 [2, 3]: 0.9583 and 0.7384 and 1.046 and 0.967 and 0.8595 and 0.8402
